Holding throughout (format): biochemical
In one test the target is PKR WT (Homo sapiens, UniProt P30613). Description: PKR WT enzymatic AC50 assay. As to conditions: wild type PKR. Here is the method:
(§1) • PKR or PKR mutant enzyme solution was diluted in assay buffer. • 2 μL of test compound was added into wells first, and then 180 μL reaction mix was added. • Reactions mixture with test compound was assembled except for ADP, and plates were stored for 60 minutes at room temperature. • 20 uL ADP was added to start reaction at room temperature and reaction progress was measured as changes in absorbance at 340 nm wavelength at room temperature.
(§2) Test Compound Preparation: • Test compound stock was made at 100× concentration in 100% DMSO (10 mM) • 1 to 3 dilutions were made for 11 points (i.e. 50 μl of first concentration added to 100 μl 100% DMSO to yield 3.33 mM, 50 μl of this added to 100 μl DMSO to yield 1.11 mM, and so forth) • 1 to 100 dilution into assay (2 μl in 200 μl) yielded starting concentration of 100 μM, decreasing 3 fold for 11 points. Assay Buffer: 100 mM KCl, 50 mM Tris 7.5, 5 mM MgCl2, 1 mM DTT, 0.03% BSA Reaction Mixture: PKR mutant enzyme: 80-400 ng/well; ADP: 0.22-1.65 mM; PEP: 0.1-0.5 mM; NADH: 180 uM; LDH: 0.5 units (Sigma#59023); DTT: 1 mM; BSA: 0.03%.

For a further test, the target named is PKR R532W (Homo sapiens, UniProt P30613, R532W). Description: PKR Mutant Assay, AC50 against PKR R532W. As to conditions: mutant PKR R532W enzyme. The protocol: as §1, §2
Chain of PKR R532W (P30613 whole entry R532W): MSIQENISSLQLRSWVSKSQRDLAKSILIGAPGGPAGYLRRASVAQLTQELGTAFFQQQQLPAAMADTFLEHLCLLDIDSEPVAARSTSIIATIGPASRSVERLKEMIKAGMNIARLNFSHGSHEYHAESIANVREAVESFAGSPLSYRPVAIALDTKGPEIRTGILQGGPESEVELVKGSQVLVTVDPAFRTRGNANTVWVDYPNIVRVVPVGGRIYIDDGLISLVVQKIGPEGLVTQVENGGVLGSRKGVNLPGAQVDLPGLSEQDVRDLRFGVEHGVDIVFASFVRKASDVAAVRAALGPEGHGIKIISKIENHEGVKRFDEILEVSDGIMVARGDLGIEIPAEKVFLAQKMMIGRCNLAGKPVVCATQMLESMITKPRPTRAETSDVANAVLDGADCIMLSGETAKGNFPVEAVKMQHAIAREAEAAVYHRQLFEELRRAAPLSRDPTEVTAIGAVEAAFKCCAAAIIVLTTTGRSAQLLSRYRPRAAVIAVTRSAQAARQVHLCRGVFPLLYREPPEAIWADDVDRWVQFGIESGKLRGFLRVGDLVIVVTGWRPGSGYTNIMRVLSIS
Another test concerns the target PKR R510Q (Homo sapiens, UniProt P30613, R510Q). Description: PKR Mutant Assay, AC50 against PKR R510Q. As to conditions: mutant PKR R510Q enzyme. The protocol: as §1, §2

33 molecules from US9108921B2, “Therapeutic compounds and compositions” (AGIOS PHARMACEUTICALS, INC, priority 2014, dated 2015) can be followed below.

For orientation: AC50 means the midpoint of the concentration-response curve, whichever way the signal moves. The low end stands for activity at low concentration, the high end for activity only at high concentration.

Chain of PKR WT (P30613 whole entry): as the sequence (P30613 whole entry R532W) above, with W532R counted along it
Chain of PKR R510Q (P30613 whole entry R510Q): as the sequence (P30613 whole entry R532W) above, with R510Q, W532R counted along it

`CC1(CC2(O)CCN(C(=O)c3ccc(NS(=O)(=O)c4cccc5scnc45)cc3)CC2)CC1` [Compound 132, N-(4-(4-hydroxy-4-((1-methylcyclopropyl)methyl)piperidine-1-carbonyl)phenyl)benzo[d]thiazole-4-sulfonamide]: the AC50 on PKR WT, on PKR R532W and on PKR R510Q was less than 0.1 µM throughout.
For the molecule `O=C(c1ccc(NS(=O)(=O)c2ccc(F)c3cccnc23)cc1)N1CCC(O)(Cc2ccccc2F)CC1` [Compound 158, 5-fluoro-N-(4-(4-(2-fluorobenzyl)-4-hydroxypiperidine-1-carbonyl)phenyl)quinoline-8-sulfonamide], the AC50 at PKR WT, at PKR R532W and on PKR R510Q was less than 0.1 µM in each case.
On to `C=C(C)CC1(O)CCN(C(=O)c2ccc(NS(=O)(=O)c3cccc4scnc34)cc2)CC1` [Compound 181, N-(4-(4-hydroxy-4-(2-methylallyl)piperidine-1-carbonyl)phenyl)benzo[d]thiazole-4-sulfonamide], for which the AC50 at PKR WT was less than 0.1 µM; at PKR R532W it was less than 0.1 µM; on PKR R510Q, 0.101 to 1 µM.
Consider `O=C(c1ccc(NS(=O)(=O)c2cccc3nccnc23)cc1)N1CCC(O)(CC2CC2)CC1` [Compound 188, N-(4-(4-(cyclopropylmethyl)-4-hydroxypiperidine-1-carbonyl)phenyl)quinoxaline-5-sulfonamide], for which the AC50 was less than 0.1 µM on PKR WT, less than 0.1 µM on PKR R532W and 0.101 to 1 µM at PKR R510Q.
With `O=C(c1ccc(NS(=O)(=O)c2cccc3scnc23)cc1)N1CCC(O)(CC2CC2)CC1` [Compound 198, N-(4-(4-(cyclopropylmethyl)-4-hydroxypiperidine-1-carbonyl)phenyl)benzo[d]thiazole-4-sulfonamide], the AC50 is less than 0.1 µM on PKR WT, less than 0.1 µM on PKR R532W and 0.101 to 1 µM at PKR R510Q.
With `O=C(c1ccc(NS(=O)(=O)c2cccc3cccnc23)cc1)N1CCC(O)(/C=C/C(F)F)CC1` [Compound 200], the values for the AC50 at PKR WT, at PKR R532W and at PKR R510Q were less than 0.1 µM, 0.101 to 1 µM and 0.101 to 1 µM, respectively.
Consider `O=C(c1ccc(NS(=O)(=O)c2ccc(F)c3cccnc23)cc1)N1CCC(O)(CC2CCC2)CC1` [Compound 201, N-(4-(4-(cyclobutylmethyl)-4-hydroxypiperidine-1-carbonyl)phenyl)-5-fluoroquinoline-8-sulfonamide], for which the concentration at half-maximal activity (AC50) at PKR WT is less than 0.1 µM; at PKR R532W, less than 0.1 µM; at PKR R510Q, 0.101 to 1 µM.
For `CC(C)CC1(O)CCN(C(=O)c2ccc(NS(=O)(=O)c3cc(F)cc4scnc34)cc2)CC1` [Compound 202, 6-fluoro-N-(4-(4-hydroxy-4-isobutylpiperidine-1-carbonyl)phenyl)benzo[d]thiazole-4-sulfonamide], the AC50 was less than 0.1 µM at PKR WT, less than 0.1 µM on PKR R532W and 0.101 to 1 µM on PKR R510Q.
As to `O=C(c1ccc(NS(=O)(=O)c2ccc(F)c3cccnc23)cc1)N1CCC(O)(Cc2ccccc2C(F)(F)F)CC1` [Compound 208, 5-fluoro-N-(4-(4-hydroxy-4-(2-(trifluoromethyl)benzyl)piperidine-1-carbonyl)phenyl)quinoline-8-sulfonamide], the AC50 is less than 0.1 µM on PKR WT, less than 0.1 µM on PKR R532W and 0.101 to 1 µM on PKR R510Q.
For `CC(C)CC1(CO)CCN(C(=O)c2ccc(NS(=O)(=O)c3cccc4scnc34)cc2)CC1` [Compound 216, N-(4-(4-(hydroxymethyl)-4-isobutylpiperidine-1-carbonyl)phenyl)benzo[d]thiazole-4-sulfonamide], the AC50 is less than 0.1 µM at PKR WT, less than 0.1 µM at PKR R532W and 0.101 to 1 µM at PKR R510Q.
Turning to `CC(C)CC1(CO)CCN(C(=O)c2ccc(NS(=O)(=O)c3cccc4nccnc34)cc2)CC1` [Compound 219, N-(4-(4-(hydroxymethyl)-4-isobutylpiperidine-1-carbonyl)phenyl)quinoxaline-5-sulfonamide], the AC50 at PKR WT was less than 0.1 µM; on PKR R532W it was less than 0.1 µM; at PKR R510Q it was 0.101 to 1 µM.
Consider `O=C(c1ccc(NS(=O)(=O)c2cccc3nccnc23)cc1)N1CCC(O)(CCC(F)(F)F)CC1` [Compound 221, N-(4-(4-hydroxy-4-(3,3,3-trifluoropropyl)piperidine-1-carbonyl)phenyl)quinoxaline-5-sulfonamide], for which the AC50 was less than 0.1 µM at PKR WT, less than 0.1 µM at PKR R532W and 0.101 to 1 µM at PKR R510Q.
For the molecule `O=C(c1ccc(NS(=O)(=O)c2ccc(F)c3cccnc23)cc1)N1CCC(O)(c2cccc(F)c2F)CC1` [Compound 227, N-(4-(4-(2,3-difluorophenyl)-4-hydroxypiperidine-1-carbonyl)phenyl)-5-fluoroquinoline-8-sulfonamide], the AC50 on PKR WT, at PKR R532W and at PKR R510Q was 0.101 to 1 µM throughout.
Take `O=C(c1ccc(NS(=O)(=O)c2cccc3nccnc23)cc1)N1CCC(O)(CCC(F)F)CC1` [Compound 230, N-(4-(4-(3,3-difluoropropyl)-4-hydroxypiperidine-1-carbonyl)phenyl)quinoxaline-5-sulfonamide]: the half-maximal activity concentration (AC50) on PKR WT, on PKR R532W and on PKR R510Q was 0.101 to 1 µM each time.
With `O=C(c1ccc(NS(=O)(=O)c2ccc(F)c3scnc23)cc1)N1CCC(O)(c2ccccc2Cl)CC1` [Compound 231], the figures for the AC50 on PKR WT, at PKR R532W and at PKR R510Q were 0.101 to 1 µM, 0.101 to 1 µM and 1.01 to 10 µM, respectively.
For `O=C(c1c(F)cc(NS(=O)(=O)c2cccc3cccnc23)cc1F)N1CCC(O)(c2ccccc2Cl)CC1` [Compound 232, N-(4-(4-(2-chlorophenyl)-4-hydroxypiperidine-1-carbonyl)-3,5-difluorophenyl)quinoline-8-sulfonamide], the AC50 on PKR WT, on PKR R532W and on PKR R510Q was 0.101 to 1 µM throughout.
As to `O=C(c1ccc(NS(=O)(=O)c2cccc(Cl)c2)cc1)N1CCC(O)(Cc2ccccc2)CC1` [Compound 281], the AC50 at PKR WT and on PKR R532W was 0.101 to 1 µM each time.
On to `O=C(c1ccc(NS(=O)(=O)c2cccc(C(F)(F)F)c2)cc1)N1CCC(O)(Cc2ccccc2)CC1` [Compound 287], for which the AC50 was in the range of 0.101 to 1 µM on PKR WT and 1.01 to 10 µM on PKR R532W.
For `O=C(c1ccc(NS(=O)(=O)c2ccc3c(c2)OCO3)cc1)N1CCC(O)(Cc2ccccc2)CC1` [Compound 288], in that order: 0.101 to 1 µM and 1.01 to 10 µM.
Regarding `O=C(c1ccc(NS(=O)(=O)c2ccc(Cl)cc2)cc1)N1CCC(O)(Cc2ccccc2)CC1` [Compound 299], on PKR WT, the AC50 fell in the range of 1.01 to 10 µM.
Consider `CN(C)CC1(O)CCN(C(=O)c2ccc(NS(=O)(=O)c3cccc4cccnc34)cc2)CC1` [Compound 301], for which the AC50 on PKR WT and on PKR R532W was 1.01 to 10 µM throughout.
As to `O=C(c1ccc(NS(=O)(=O)c2cccc3nonc23)cc1)N1CCC(O)(Cc2ccccc2)CC1` [Compound 310], the AC50 at PKR WT and at PKR R532W was 1.01 to 10 µM in each case.
As to `O=C(c1ccc(NS(=O)(=O)c2cccnc2)cc1)N1CCC(O)(Cc2ccccc2)CC1` [Compound 315], the AC50 on PKR WT was 1.01 to 10 µM; on PKR R532W, greater than 10 µM.
With `N#Cc1cccc(S(=O)(=O)Nc2ccc(C(=O)N3CCC(O)(Cc4ccccc4)CC3)cc2)c1` [Compound 317], the AC50 at PKR WT was greater than 10 µM.
Regarding `O=C(c1ccc(NS(=O)(=O)c2cccc3cnccc23)cc1)N1CCC(O)(c2ccccc2)CC1` [Compound 319], the AC50 on PKR WT and on PKR R532W was greater than 10 µM in each case.
Consider `O=C(c1ccc(NS(=O)(=O)c2ccc(C(F)(F)F)cc2)cc1)N1CCC(O)(Cc2ccccc2)CC1` [Compound 321], for which the AC50 on PKR WT and on PKR R532W was greater than 10 µM each time.
The molecule `O=C(c1ncc(NS(=O)(=O)c2cccc3cccnc23)cn1)N1CCC(O)(c2ccccc2)CC1` [Compound 323] yielded an AC50 at PKR WT greater than 10 µM.
As to `O=C(c1ccc(NS(=O)(=O)c2cccc3cccnc23)cc1)N1CCC(O)(CN2CCCC2)CC1` [Compound 327], the AC50 on PKR R532W was in the range of 1.01 to 10 µM.
In the case of `CCOC(=O)C1(Cc2ccccc2)CCN(C(=O)c2ccc(NS(=O)(=O)c3cccc4cccnc34)cc2)CC1` [Compound 330], the AC50 at PKR R532W lay within 0.101 to 1 µM; at PKR R510Q it was 1.01 to 10 µM.
As to `CC(C)CC1(O)CCN(C(=O)c2ccc(NS(=O)(=O)c3cnc(O)c4cccnc34)cc2)CC1` [Compound 416], the AC50 on PKR WT is 1.01 to 10 µM; at PKR R532W, greater than 10 µM.
For `CC(C)CC1(O)CCN(C(=O)c2ccc(NS(=O)(=O)c3cccc4snnc34)cc2)CC1` [Compound 419], in that order: greater than 10 µM and greater than 10 µM.
As for `CC(F)(F)CCC1(O)CCN(C(=O)c2ccc(NS(=O)(=O)c3cccc4scnc34)cc2)CC1` [Compound 440], the AC50 at PKR R532W and on PKR R510Q was 0.101 to 1 µM throughout.
As for `CC(C)CC1(O)CCN(C(=O)c2ccc(NS(=O)(=O)c3cccc4cncnc34)cc2)CC1` [Compound 441], the AC50 lay within 0.101 to 1 µM on PKR R532W and 1.01 to 10 µM on PKR R510Q.
